# Experimental data from patent publication US20220389058A1, “PEPTIDES AND COMPOSITIONS FOR USE IN COSMETICS AND MEDICINE” (LIPOTRUE, S.L., priority 2019, published 2022).
# Entries after “also recorded” stand apart in the source; their conditions may differ.
# Columns and labels:
# IL33 = IL33 expression modulation by RT-qPCR in HEKa cells (Example 7); assay type: cell-based, Human; details: 0.01 mg/mL, 24 hours
# Method: (§1) A stock solution of the peptide was prepared in water at 1 mg/mL. Working solution was freshly prepared at the specified concentration from stock solution in the corresponding supplemented medium.
# RNA (ribonucleic acid) extraction and RT-qPCR (reverse transcription quantitative polymerase chain reaction) were performed. Briefly, HDFa and HEKa cells were seeded in duplicate (n=2) in 6-well plates at a density of 4×10^5 cells/well and maintained at standard culture conditions (106 Medium supplemented with 1% (v/v) LSGS for HDFa cells; Medium Epilife supplemented with 1% (v/v) EDGS and 1% (v/v) penicillin/streptomycin for HEKa cells; 37° C., 95% room humidity, 5% CO2) for 24 hours. Then, cells were treated with peptide Ac-SEQ ID NO: 1-NH2, Ac-SEQ ID NO: 2-NH2 or Ac-SEQ ID NO: 3-NH2 at the concentration of 0.01 mg/mL for 24 hours. Untreated cells were used as basal or negative control.
# Cells were finally lysed, and replicates were pooled together for RNA extraction using Qiagen RNeasy Mini kit following manufacturer's instructions. Purified RNAs were used to generate the corresponding cDNAs (complementary deoxyribonucleic acids) by reverse transcription using a commercial kit High capacity cDNA reverse transcription kit (Applied Biosystems) which served as templates for amplification. RT-qPCR was performed with the appropriate TaqMan assay probes for IL33 (plus GAPDH—Glyceraldehyde 3-phosphate dehydrogenase—that was used as housekeeping gene) and 2×gene expression Master Mix using StepOne plus Real-Time PCR instrument. […] (Annealing and extension) (Arya, M., Shergill, I. S., Williamson, M., Gommersall, L., Arya, N., Patel, H. R. (2005) Basic principles of real-time quantitative PCR. Expert Rev. Mol. Diagn.; 5(2):209-19; and Jozefczuk, J. and Adjaye, J. (2011) Quantitative real-time PCR-based analysis of gene expression. Methods Enzymol. 500; 99-109).
# (§2) The obtained data was analysed using the ΔΔCt method, which provides the target gene expression values as fold changes in the treated sample compared with an untreated basal sample. […]
# HEKa cells [1] = assay: Expression of genes related to epidermal cell cohesion, RT-qPCR in HEKa (Example 9); assay type: cell-based, Human; details: 0.01 mg/mL, 24 hours
# Method: as §1
# (§3) RNA (ribonucleic acid) extraction and RT-qPCR (reverse transcription quantitative polymerase chain reaction) were performed. Briefly, HEKa cells were seeded in duplicate (n=2) in 6-well plates at a density of 4×10^5 cells/well and maintained at standard culture conditions (Medium Epilife supplemented with 1% (v/v) EDGS and 1% (v/v) penicillin/streptomycin; 37° C., 95% room humidity, 5% CO2) for 24 hours.
# Then, cells were treated with peptide Ac-SEQ ID NO: 1-NH2, Ac-SEQ ID NO: 2-NH2 or Ac-SEQ ID NO: 3-NH2 at the concentration of 0.01 mg/mL for 24 hours. Untreated cells were used as basal or negative control.
# (§4) Cells were finally lysed, and replicates were pooled together for RNA extraction using Qiagen RNeasy Mini kit following manufacturer's instructions. Purified RNAs were used to generate the corresponding cDNAs (complementary deoxyribonucleic acids) by reverse transcription using a commercial kit High capacity cDNA reverse transcription kit (Applied Biosystems) which served as templates for amplification. RT-qPCR was performed with the panel of appropriate TaqMan assay probes for genes shown in table 1 (plus GAPDH—Glyceraldehyde 3-phosphate dehydrogenase—that was used as housekeeping gene) and 2×gene expression Master Mix using StepOne plus Real-Time PCR instrument. Amplification included 40 cycles of: 15 seconds at 95° C. (denaturation) and 1 minute at 60° C. (Annealing and extension) (Arya, M., Shergill, I. S., Williamson, M., Gommersall, L., Arya, N., Patel, H. R. (2005) Basic principles of real-time quantitative PCR. Expert Rev. Mol. Diagn.; 5(2):209-19; and Jozefczuk, J. and Adjaye, J. (2011) Quantitative real-time PCR-based analysis of gene expression. Methods Enzymol. 500; 99-109).
# (§5) The obtained data was analysed using the ΔΔCt method, which provides the target gene expression values as fold changes in the treated sample compared with an untreated basal sample. Both samples were normalized with the relative expression of a housekeeping gene GAPDH (Glyceraldehyde 3-phosphate dehydrogenase).
# HDFa cells [2] = assay: Expression of genes related with collagen production and extracellular matrix, RT-qPCR in HDFa (Example 10); assay type: cell-based, Human; details: 0.01 mg/mL, 24 hours
# Method: as §1
# RNA (ribonucleic acid) extraction and RT-qPCR (reverse transcription quantitative polymerase chain reaction) were performed. Briefly, HDFa cells were seeded in duplicate (n=2) in 6-well plates at a density of 4×10^5 cells/well and maintained at standard culture conditions (106 Medium supplemented with 1% (v/v) LSGS; 37° C., 95% room humidity, 5% CO2) for 24 hours. Then, cells were treated with peptide Ac-SEQ ID NO: 1-NH2 at the concentration of 0.01 mg/mL for 24 and 48 hours. Untreated cells were used as basal or negative control.
# as §4, with “table 5” for “table 1”
# as §5
# [3] = tested on: recombinant mushroom tyrosinase; assay: Tyrosinase activity, L-DOPA/dopachrome absorbance (Example 11); assay type: biochemical; details: 0.05-2.5 mg/mL (Ac-SEQ ID NO: 4-NH2: 0.005-2.5 mg/mL); 30 minutes preincubation, L-DOPA, 2 hours, absorbance 450 nm; vs non-treated control (100%)
# Method: Briefly, different concentrations of Ac-SEQ ID NO: 1-NH2 (0.05, 0.25, 0.5 and 2.5 mg/mL), Ac-SEQ ID NO: 2-NH2 (0.05, 0.25, 0.5 and 2.5 mg/mL), Ac-SEQ ID NO: 3-NH2 (0.05, 0.25, 0.5 and 2.5 mg/mL) and Ac-SEQ ID NO: 4-NH2 (0.005, 0.025, 0.05, 0.25, 0.5 and 2.5 mg/mL) and the positive control kojic acid (400 and 800 μM) were incubated with recombinant mushroom tyrosinase for 30 minutes before the addition of L-DOPA (L-3,4 dihidroxiphenilalanine, 2.5 mg/mL in PBS). After 2 hours' reaction at room temperature, the absorbance at 450 nm of each well was determined using the microplate reader Multiskan FC (Thermo Fisher Scientific, Mass., USA), which is directly proportional to the amount of dopachrome in the reaction mixture.
# HDFa cells [4] = assay: Gene expression with Ac-SEQ ID NO: 4-NH2, RT-qPCR in HDFa (Example 17); assay type: cell-based, Human; details: 0.01 mg/mL, 24 hours
# Method: as §1
# as §3, with “HEKa or HDFa” for “HEKa”, “(106 Medium supplemented with 1% (v/v) LSGS for HDFa cells; Medium” for “(Medium”, “penicillin/streptomycin for HEKa cells;” for “penicillin/streptomycin;”
# (§6) Then, cells were treated with peptide Ac-SEQ ID NO: 4-NH2 at the concentration of 0.01 mg/mL for 24 hours. Untreated cells were used as basal or negative control.
# as §4, with “table 10” for “table 1”, “C. […]” for “C. (denaturation) and 1 minute at 60° C.”
# as §2
# HEKa cells [5] = assay: Gene expression with Ac-SEQ ID NO: 4-NH2, RT-qPCR in HEKa (Example 17); assay type: cell-based, Human; details: 0.01 mg/mL, 24 hours
# Method: as §1
# as §3, with “HEKa or HDFa” for “HEKa”, “(106 Medium supplemented with 1% (v/v) LSGS for HDFa cells; Medium” for “(Medium”, “penicillin/streptomycin for HEKa cells;” for “penicillin/streptomycin;”
# as §6
# as §4, with “table 10” for “table 1”
# as §5
Substance,"IL33 gene expression, fold change in treated cells with regard to basal control (IL33) [fold change]",CLDN4 Fold change between treated cells and basal control (HEKa cells [1]) [Fold change],OCLN Fold change between treated cells and basal control (HEKa cells [1]) [Fold change],PCDH1 Fold change between treated cells and basal control (HEKa cells [1]) [Fold change],PKP2 Fold change between treated cells and basal control (HEKa cells [1]) [Fold change],TJP1 Fold change between treated cells and basal control (HEKa cells [1]) [Fold change],FBN1 Fold change between treated cells and basal control (HDFa cells [2]) [Fold change],MMP1 Fold change between treated cells and basal control (HDFa cells [2]) [Fold change],tyrosinase activity [3],also measured
Ac-Arg-Glu-Gln-Met-Arg-Arg-NH2 (Ac-REQMRR-NH2) [Ac-SEQ ID NO: 3-NH2],−3.93,1.90,1.99,2.48,1.86,1.43,1.29,−1.46,showed a dose-dependent inhibition of tyrosinase activity at concentrations of 0.25 mg/mL and higher,CLDN1 Fold change between treated cells and basal control (HEKa cells [1]): 1.5 Fold change; DSC1 Fold change between treated cells and basal control (HEKa cells [1]): 1.41 Fold change; DSC2 Fold change between treated cells and basal control (HEKa cells [1]): 1.43 Fold change; DSP Fold change between treated cells and basal control (HEKa cells [1]): 1.28 Fold change; JUP Fold change between treated cells and basal control (HEKa cells [1]): 1.23 Fold change; PPL Fold change between treated cells and basal control (HEKa cells [1]): 1.52 Fold change; MMP3 Fold change between treated cells and basal control (HDFa cells [2]): −1.30 Fold change
"Ac-Arg-Arg-Gln-Met-Glu-Glu-NH2 (Ac-RRQMEE-NH2) [Ac-SEQ ID NO: 4-NH2, a peptide not of the present invention, very similar comparison peptide]",–,–,–,–,–,–,–,–,did not inhibit tyrosinase activity in any of the concentrations tested; also recorded: from concentration 0.05 mg/mL and onwards it increased tyrosinase activity in a dose-dependent manner,COL3A1 Fold change between treated cells and basal control (HDFa cells [4]): −1.28 Fold change; IL1RL1 Fold change between treated cells and basal control (HDFa cells [4]): −1.12 Fold change; TIMP2 Fold change between treated cells and basal control (HDFa cells [4]): −1.26 Fold change; CDSN Fold change between treated cells and basal control (HEKa cells [5]): −1.04 Fold change; IL33 Fold change between treated cells and basal control (HEKa cells [5]): −1.01 Fold change; OCLN Fold change between treated cells and basal control (HEKa cells [5]): −1.08 Fold change; SIGIRR Fold change between treated cells and basal control (HEKa cells [5]): −1.49 Fold change; SLC2A1 Fold change between treated cells and basal control (HEKa cells [5]): −1.07 Fold change; TJP1 Fold change between treated cells and basal control (HEKa cells [5]): −1.04 Fold change
Ac-Met-Arg-Arg-Glu-Gln-Arg-NH2 (Ac-MRREQR-NH2) [Ac-SEQ ID NO: 2-NH2],−3.77,1.51,1.58,2.14,1.42,1.34,1.20,−1.21,showed inhibition of tyrosinase activity in a dose-dependent manner from 0.05 mg/mL and onwards,–
